The source made the active and inactive calls.
Columns and labels:
[1] = target: Heat shock protein HSP 90-alpha (Homo sapiens, UniProt P07900); format: functional, organism-based
Hexokinase HKDC1 = target: T1, Hexokinase HKDC1 (Homo sapiens, UniProt Q2TB90); assay: HKDC1 hexokinase activators, dose response, biochemical, W721R variant (AID 504730); format: functional
T1 sequence (Q2TB90 whole entry): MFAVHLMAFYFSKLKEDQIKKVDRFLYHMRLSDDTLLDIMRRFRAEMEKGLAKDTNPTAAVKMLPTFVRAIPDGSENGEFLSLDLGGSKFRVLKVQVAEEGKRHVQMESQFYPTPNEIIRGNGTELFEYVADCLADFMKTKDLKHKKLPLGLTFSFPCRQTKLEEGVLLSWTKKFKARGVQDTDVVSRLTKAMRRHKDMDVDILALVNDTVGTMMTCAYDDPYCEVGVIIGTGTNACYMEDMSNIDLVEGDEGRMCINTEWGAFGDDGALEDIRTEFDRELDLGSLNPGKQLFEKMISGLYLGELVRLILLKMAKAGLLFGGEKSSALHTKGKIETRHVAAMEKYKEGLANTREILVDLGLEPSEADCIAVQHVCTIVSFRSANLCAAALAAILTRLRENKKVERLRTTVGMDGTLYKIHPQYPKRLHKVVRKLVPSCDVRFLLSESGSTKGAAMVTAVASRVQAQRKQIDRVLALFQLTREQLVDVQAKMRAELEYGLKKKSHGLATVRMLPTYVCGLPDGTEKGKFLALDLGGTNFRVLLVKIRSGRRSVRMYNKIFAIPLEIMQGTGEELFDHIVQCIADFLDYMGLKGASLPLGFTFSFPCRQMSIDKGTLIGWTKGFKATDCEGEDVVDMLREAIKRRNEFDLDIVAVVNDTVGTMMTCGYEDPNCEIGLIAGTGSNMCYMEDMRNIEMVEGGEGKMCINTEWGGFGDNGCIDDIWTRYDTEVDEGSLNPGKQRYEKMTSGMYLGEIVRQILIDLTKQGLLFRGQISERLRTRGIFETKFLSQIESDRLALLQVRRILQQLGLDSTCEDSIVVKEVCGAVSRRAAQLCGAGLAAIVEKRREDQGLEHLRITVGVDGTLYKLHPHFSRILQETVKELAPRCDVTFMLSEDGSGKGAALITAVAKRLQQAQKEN

[2] = target: Lysine-specific demethylase 4C (Homo sapiens, UniProt Q9H3R0); assay: GASC-1 (JMJD2C) histone demethylase inhibitors, dose response, biochemical, DELFIA europium, cherry-picked samples (AID 488835); format: functional
Lysine-specific demethylase 4C, sequence (Q9H3R0 whole entry): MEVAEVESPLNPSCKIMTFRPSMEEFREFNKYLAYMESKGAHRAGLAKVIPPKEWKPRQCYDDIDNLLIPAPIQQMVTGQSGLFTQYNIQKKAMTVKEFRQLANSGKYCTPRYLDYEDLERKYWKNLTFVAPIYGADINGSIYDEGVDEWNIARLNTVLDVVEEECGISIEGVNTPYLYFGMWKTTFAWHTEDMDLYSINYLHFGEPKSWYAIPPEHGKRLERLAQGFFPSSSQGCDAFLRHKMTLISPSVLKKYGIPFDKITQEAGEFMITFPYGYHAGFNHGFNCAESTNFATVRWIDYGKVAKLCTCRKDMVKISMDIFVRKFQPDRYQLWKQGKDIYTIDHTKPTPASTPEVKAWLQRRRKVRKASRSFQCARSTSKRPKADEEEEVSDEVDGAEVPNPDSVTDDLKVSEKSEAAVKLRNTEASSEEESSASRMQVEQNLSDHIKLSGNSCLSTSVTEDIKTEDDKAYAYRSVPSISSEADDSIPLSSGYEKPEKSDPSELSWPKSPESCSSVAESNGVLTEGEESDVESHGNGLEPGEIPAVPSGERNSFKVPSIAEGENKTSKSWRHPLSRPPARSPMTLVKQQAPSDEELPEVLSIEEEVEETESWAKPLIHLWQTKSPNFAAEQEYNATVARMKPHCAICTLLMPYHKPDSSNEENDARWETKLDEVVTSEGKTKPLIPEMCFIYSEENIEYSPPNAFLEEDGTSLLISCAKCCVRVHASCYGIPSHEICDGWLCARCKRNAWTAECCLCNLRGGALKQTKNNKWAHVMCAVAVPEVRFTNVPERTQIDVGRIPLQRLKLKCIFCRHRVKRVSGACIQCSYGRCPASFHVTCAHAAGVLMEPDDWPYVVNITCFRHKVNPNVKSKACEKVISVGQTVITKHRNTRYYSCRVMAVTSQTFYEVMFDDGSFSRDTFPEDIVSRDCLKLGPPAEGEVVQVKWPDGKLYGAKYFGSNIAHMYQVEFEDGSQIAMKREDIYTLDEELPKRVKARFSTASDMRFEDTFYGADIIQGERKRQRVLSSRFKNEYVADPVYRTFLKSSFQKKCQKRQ

Q: What does the source list for `Clc1ccc(/N=c2\ssnc2Cl)nc1`?
A: AC50 [1]: 1730 nM (active); EC50 (Hexokinase HKDC1): 50300 nM (inactive); AC50 [2]: 669 nM (active)
